Test results reported in patent US9610371B2, “Anticancer therapy” (STC.UNM, priority 2005, dated 2017).
“Also recorded” adds a separate entry of the source. Where two headings read alike, the source gives them in different places. Positions of bridges follow the written chain, without caps; N, C: chain ends. Non-standard residues stand in square brackets, D forms with d. Residues, ends and D or L forms follow the SMILES beside them.

Columns and labels:
[1] = 25 day toxicology in tumor bearing male Lewis rats; type: in vivo, Lewis rat; settings: 25 days; 12.6 MBq ^213Bi-DOTATOC group and DOTATOC control group
Protocol: Toxicology was assessed at 25 days in 4 groups of tumor bearing male Lewis rats (average volume […]). Rats in the first group, Cohort 1, were injected on day 1 only. Rats in second cohort were injected on days 1 and 2, while rats in the third cohort were injected on days 1, 2, and 3. Rats were injected with 2.56 μg, 0.5 μg, 0.5 μg DOTATOC, on day 1, day 2 and day 3, respectively, with a nominal activity of 3.7 MBq. Each dose was divided into 2 injections at 1 hour intervals. The rats received the following cumulative average activities per group: Cohort 1 (N=3) received 4.3±0.7 MBq, Cohort 2 (N=3) received 9.0±0.4 MBq, and Cohort 3 (N=4) received 12.6±0.3 MBq of ^213Bi-DOTATOC. Cohort 4 (N=4) was added as control group and injected twice daily with unlabelled DOTATOC on three consecutive days.
After 24 days, the animals were put into a metabolic cage to collect urine samples for creatinine clearance analysis. Creatine clearance was determined as previously described (20). After 24 hour urine collection, the animals were euthanized with halothane. For blood collection, a cardiac puncture was performed. Blood analysis consisted of hemoglobin (Hgb), hematocrit (Hct), red blood cells (RBC's), and white blood cells (WBC's) with differential, and platelets (Pt's). Additionally T4 and FSH values were assessed using the serum.
Additional groups were then designed to study the effects of the treatment on a somatostatin receptor positive tumor. The first group was designed to study the effects of treatment on large volume tumors (average volume 1720±608 mm^3). This group, Cohort 5 (N=5), received three fractionated doses of ^213Bi-DOTATOC (specific activity 7.4 MBq ^213Bi/1 μG DOTATOC) with a total average cumulative dose of 13.0±0.5 MBq of ^213Bi-DOTATOC. The last cohort, the sixth cohort (N=4), was injected with two fractionated doses, ^213Bi-DOTATOC (specific activity 7.4 MBq ^213Bi/1 μG DOTATOC) with a total average cumulative dose of 22.2±0.7 MBq of ^213Bi-DOTATOC. As described earlier, each dose was divided into 2 injections separated by a 1 hour interval. Tumor response to the treatment was assessed in all cohorts by daily tumor measurements.
Organs were harvested and immediately placed in 10% formalin for a minimum of 48 hours. Following fixation in formalin, bone samples were placed in decalcifying solution for 36 hours. Trimmed organs were sent to the TriCore Laboratories (Albuquerque, N. Mex.) where they were embedded in paraffin, sectioned, and stained with Hematoxylin and Eosin (H and E). Histopathologic evaluation was performed by a board certified veterinary pathologist (DFK) who examined the following organs of each animal: heart, lung, kidneys, testicles, spleen, pancreas, pituitary bone marrow, urinary bladder, adrenals, and two different sections of the liver.
Sections of both the right and left kidneys were examined to determine nephrotoxicity in all cohorts. Bone marrow was examined to evaluate hypoplasia and other lesions in Cohorts 3 and 4. Interstitial nephritis and bone marrow were scored as follows: 0 no lesions, 1 minimal lesions, 2 mild lesions, 3 moderate lesions, and 4 severe lesions.
For the pathology scoring, to evaluate nephrotoxicity on the 6 treatment groups, a frequency analysis was performed in StatXact-5 using the Jonckheere-Terpstra Test. For all other data, graphs and calculations were performed in SigmaStat®-3 and SigmaPlot®-9 as well as Graph Pad Prism®-4 using the t-test. For all statistical tests results were considered significant when p<0.05. Animal biodistribution and tumor volume data are expressed as the average, plus or minus the SEM.

Capan-2 cells [2] = test: CellTiter-Glo Luminescent Cell Viability Assay, gemcitabine pre-treated and non-treated Capan-2; type: cell-based, human
Protocol: Effects of 37 kBq and 370 kBq of ^177Lu labeled DOTATOC and DOTA on gemcitabine pre-treated Capan-2 cells and non-treated cells were evaluated using CellTiter-Glo® Luminescent Cell Viability Assay (Promega, Madison, Wis.) and Cell Death Detection ELISA^PLUS10× (Roche Applied Sciences, IN) for apoptosis. Cell viability was evaluated at 24 and 48 hours of incubations.

Capan-2 cells [3] = test: Cell Death Detection ELISA PLUS apoptosis, gemcitabine pre-treated and non-treated Capan-2; type: cell-based, human; settings: 72 hours
Protocol: […] Capan-2 cells and non-treated cells were evaluated using CellTiter-Glo® Luminescent Cell Viability Assay (Promega, Madison, Wis.) and Cell Death Detection ELISA^PLUS10× (Roche Applied Sciences, IN) for apoptosis. Cell viability was evaluated at 24 and 48 hours of incubations.

[4] = tested on: somatostatin receptor binding sites of Capan-2 cells; test: Radioligand assay of ^177Lu-DOTATOC binding after gemcitabine pre-treatment; type: cell-based, human; settings: 4 days 1 μg/mL pre-treatment and 4 days of replenishment
Protocol: A radioligand assay was performed to evaluate receptor binding by the recognition ligand after pre-treatment of 4 days with 1 μg/mL gemcitabine and 4 days of replenishment.

Capan-2 = test: Apoptosis in Capan-2 cells, with or without gemcitabine pre-treatment; type: cell-based, human; settings: Capan-2, 1 μg/mL, FIG. 7
Source text: Alpha emitters such as ^213Bi are known to cause G2M arrest and induce apoptosis in cancer cell lines. Experiments were thus performed to evaluate radiation-induced apoptosis and the radiobiological and radiotherapeutical relevance of this mode of cell death in selection of a radionuclide for therapy.
Activation or down regulation of pro- and anti-apoptotic genes influence cancer cell viability, cancer cell sensitivity to chemotherapy and radiotherapy, and tumor development and progression. A variety of chemotherapeutic agents induce cell death via apoptosis. Gemcitabine is known to induce apoptosis primarily due to Bax overexpression, whereas Bcl-xl is known to reduce gemcitabine-induced apoptosis. In contrast, Capan-2 is […] to Fas-mediated apoptosis. […] The data is expressed as ±S.E.M. of mean apoptosis. […] But when combined with radiolabeled DOTATOC, a synergetic effect on induction of apoptosis is observed.

human sst2 = human sst2 (Homo sapiens, UniProt P30874); settings: cited from earlier work
human sst3 = human sst3 (Homo sapiens, UniProt P32745); settings: cited from earlier work
human sst4 = human sst4 (Homo sapiens, UniProt P31391); settings: cited from earlier work
human sst1 = human sst1 (Homo sapiens, UniProt P30872); settings: cited from earlier work
[5] = tested on: human SSTR subtypes (SSTR1-SSTR5); settings: cited from earlier work

Chain of human sst4 (P31391 whole entry): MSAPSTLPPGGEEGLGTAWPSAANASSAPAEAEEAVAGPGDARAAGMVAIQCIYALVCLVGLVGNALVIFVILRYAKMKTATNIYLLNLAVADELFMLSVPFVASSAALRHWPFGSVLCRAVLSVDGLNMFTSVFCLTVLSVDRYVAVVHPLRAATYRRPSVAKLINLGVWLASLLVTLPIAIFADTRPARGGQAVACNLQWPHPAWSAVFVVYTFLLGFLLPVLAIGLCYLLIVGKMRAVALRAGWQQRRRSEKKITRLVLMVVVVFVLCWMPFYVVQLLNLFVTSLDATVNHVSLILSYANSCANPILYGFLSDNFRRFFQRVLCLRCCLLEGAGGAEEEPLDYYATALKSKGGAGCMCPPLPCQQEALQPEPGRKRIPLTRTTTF
Chain of human sst1 (P30872 whole entry): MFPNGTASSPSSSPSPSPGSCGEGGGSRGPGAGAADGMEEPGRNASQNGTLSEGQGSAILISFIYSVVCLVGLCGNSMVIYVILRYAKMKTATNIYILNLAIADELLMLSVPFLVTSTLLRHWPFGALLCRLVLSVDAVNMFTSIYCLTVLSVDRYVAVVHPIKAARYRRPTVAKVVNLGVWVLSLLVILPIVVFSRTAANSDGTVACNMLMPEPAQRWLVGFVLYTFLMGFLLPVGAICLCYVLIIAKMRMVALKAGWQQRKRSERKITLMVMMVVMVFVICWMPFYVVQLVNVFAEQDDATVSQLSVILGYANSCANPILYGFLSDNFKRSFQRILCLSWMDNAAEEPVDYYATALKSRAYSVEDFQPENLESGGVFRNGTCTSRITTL
Chain of human sst3 (P32745 whole entry): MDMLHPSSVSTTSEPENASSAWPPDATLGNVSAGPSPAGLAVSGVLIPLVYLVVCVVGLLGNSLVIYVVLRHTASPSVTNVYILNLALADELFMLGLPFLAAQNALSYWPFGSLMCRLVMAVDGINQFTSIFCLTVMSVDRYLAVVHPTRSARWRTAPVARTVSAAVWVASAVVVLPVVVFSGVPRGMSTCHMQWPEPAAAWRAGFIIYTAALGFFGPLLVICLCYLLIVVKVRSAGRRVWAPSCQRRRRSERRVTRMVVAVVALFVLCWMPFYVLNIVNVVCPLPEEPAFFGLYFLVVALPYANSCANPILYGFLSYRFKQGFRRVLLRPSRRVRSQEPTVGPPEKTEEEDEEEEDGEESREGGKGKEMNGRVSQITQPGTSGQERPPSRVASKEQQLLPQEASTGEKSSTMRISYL
Chain of human sst2 (P30874 whole entry): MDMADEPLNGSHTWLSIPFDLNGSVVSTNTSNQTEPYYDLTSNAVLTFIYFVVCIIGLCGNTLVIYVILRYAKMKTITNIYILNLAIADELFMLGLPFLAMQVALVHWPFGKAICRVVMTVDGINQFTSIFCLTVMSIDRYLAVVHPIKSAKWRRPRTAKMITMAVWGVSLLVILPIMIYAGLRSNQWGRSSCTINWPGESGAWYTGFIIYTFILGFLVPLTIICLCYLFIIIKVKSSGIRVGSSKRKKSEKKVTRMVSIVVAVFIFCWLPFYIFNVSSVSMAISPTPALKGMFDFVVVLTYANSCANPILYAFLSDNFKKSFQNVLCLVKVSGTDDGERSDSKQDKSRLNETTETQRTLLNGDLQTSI

Compound | affinity for sst2 (human sst2) | affinity for sst3 (human sst3) | affinity for sst4 (human sst4) | affinity for sst1 (human sst1) | other results
C[C@@H](O)[C@@H]1NC(=O)[C@H](CCCCN)NC(=O)[C@@H](Cc2c[nH]c3ccccc23)NC(=O)[C@H](Cc2ccc(O)cc2)NC(=O)[C@@H](NC(=O)[C@@H](Cc2ccccc2)NC(=O)CN2CCN(CC(=O)O)CCN(CC(=O)O)CCN(CC(=O)O)CC2)CSSC[C@@H](C(=O)N[C@H](CO)[C@@H](C)O)NC1=O [DOTATOC, [DOTA^0, Tyr^3] octreotide] |  |  |  |  | bone marrow analysis (hypoplasia, hyperplasia, lesions) [1]: no lesions; effects on cell viability (Capan-2 cells [2]; 24 hours, 70 pM and 7 fM, gemcitabine pre-treated and non-treated Capan-2): no significant effects; effects on the induction of apoptosis (Capan-2 cells [3]; without radiolabel): minimal effects
O=C([O-])CN1CCN(CC(=O)[O-])CCN(CC(=O)[O-])CCN(CC(=O)[O-])CC1.[177Lu+3].[H+] [^177Lu-DOTA] |  |  |  |  | effects of radiosensitivity induced by gemcitabine pre-treatment on cell viability (Capan-2 cells [2]; 24 hours, higher doses (370 kBq)): can be observed; effects of radiosensitivity induced by gemcitabine pre-treatment on cell viability (Capan-2 cells [2]; 48 hours, 370 kBq as well as 37 kBq): observed; effect on apoptosis, gemcitabine pre-treated vs non-treated Capan-2 (Capan-2 cells [3]): Enhancements of radiation induced apoptosis
Nc1ccn([C@@H]2O[C@H](CO)[C@@H](O)C2(F)F)c(=O)n1 [gemcitabine, 2′,2′-difluoro-2′-deoxycytidine] |  |  |  |  | more binding sites than the non-treated Capan-2 cells [4]: ~70%; induction of apoptosis by itself (Capan-2): does not induce any significant amount of apoptosis
CC(C)[C@@H]1NC(=O)[C@H](CCCCN)NC(=O)[C@@H](Cc2c[nH]c3ccccc23)NC(=O)[C@H](Cc2ccc(O)cc2)NC(=O)[C@@H](NC(=O)[C@H](N)Cc2ccc3ccccc3c2)CSSC[C@@H](C(=O)N[C@H](C(N)=O)[C@@H](C)O)NC1=O [lanreotide, D-βNal-Cys-Tyr-D-Trp-Lys-Val-Cys-Thr-NH2] | high affinity | moderate affinity; also recorded: lower affinity | very low affinity | very low affinity | affinity for sst4 (human sst4; listed as LAN): moderate affinity
C[C@@H](O)[C@@H]1NC(=O)[C@H](CCCCN)NC(=O)[C@@H](Cc2c[nH]c3ccccc23)NC(=O)[C@H](Cc2ccccc2)NC(=O)[C@@H](NC(=O)[C@H](N)Cc2ccccc2)CSSC[C@@H](C(=O)N[C@H](CO)[C@@H](C)O)NC1=O [octreotide, D-Phe-Cys-Phe-D-Trp-Lys-Thr-Cys-Thr-OH] | high affinity | moderate affinity; also recorded: lower affinity | very low affinity | very low affinity | affinity for sst4 (human sst4; listed as OCT): little or no affinity
CC(C)[C@@H]1NC(=O)[C@H](CCCCN)NC(=O)[C@@H](Cc2c[nH]c3ccccc23)NC(=O)[C@H](Cc2ccc(O)cc2)NC(=O)[C@@H](NC(=O)[C@H](N)Cc2ccccc2)CSSC[C@@H](C(=O)N[C@@H](Cc2c[nH]c3ccccc23)C(N)=O)NC1=O [vapreotide, D-Phe-Cys-Tyr-D-Trp-Lys-Val-Cys-Trp-NH2] (H-[dF]CY[dW]KVCW-NH2; disulfide 2-7) | high affinity | moderate affinity | moderate affinity | very low affinity | 
SST-24: somatostatin form bound by all 5 human SSTR subtypes; probably a misprint of somatostatin-14 |  |  |  |  | binding to all 5 human SSTR subtypes [5]: high affinity
SST-28: somatostatin variant that is a 28 amino acid peptide |  |  |  |  | binding to all 5 human SSTR subtypes [5]: high affinity
